Measurements taken from ChEMBL document CHEMBL1134300, “Oxindole-based inhibitors of cyclin-dependent kinase 2 (CDK2): design, synthesis, enzymatic activities, and X-ray crystallographic analysis” (J Med Chem, 2001).

Key:
[1] = biological target: Cyclin-dependent kinase 2 (Homo sapiens, UniProt P24941)
Description: Inhibitory activity against human cyclin-dependent kinase 2 (CDK2)

[2] = biological target: Cyclin-dependent kinase 1 (Homo sapiens, UniProt P06493)
Cyclin-dependent kinase 1, sequence (P06493 whole entry): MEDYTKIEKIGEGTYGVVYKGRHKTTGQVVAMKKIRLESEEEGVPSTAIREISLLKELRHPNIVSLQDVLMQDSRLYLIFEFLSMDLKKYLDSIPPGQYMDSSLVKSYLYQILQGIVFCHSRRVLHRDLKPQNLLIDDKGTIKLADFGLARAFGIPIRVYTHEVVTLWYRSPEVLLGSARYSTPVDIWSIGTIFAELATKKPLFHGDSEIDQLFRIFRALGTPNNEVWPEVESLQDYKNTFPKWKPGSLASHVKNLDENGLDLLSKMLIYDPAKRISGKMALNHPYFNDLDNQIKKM
Description: Inhibitory activity against human cyclin-dependent kinase 1 (CDK1)

Structure (SMILES)	IC50 [1]	IC50 [2]
CC(C)(CO)CNC(=O)c1ccc2c(c1)C(=NNc1ccc(S(N)(=O)=O)cc1)C(=O)N2 [GW301784X]	6.8 nM	60 nM
NS(=O)(=O)c1ccc(N/N=C2\C(=O)Nc3ccc4ncccc4c32)cc1 [GW305178X]	1.6 nM	12 nM
C/C(Nc1ccc(S(N)(=O)=O)cc1)=C1/C(=O)Nc2ccccc21 [GW335962X]	360 nM	2300 nM
CC(C)=Cc1cccc2c1C(=NNc1ccc(S(N)(=O)=O)cc1)C(=O)N2 [GW396574X]	1.5 nM	15 nM
CN(C)c1ccc2c(c1)/C(=C/Nc1ccc(S(N)(=O)=O)cc1)C(=O)N2 [GW416469X]	310 nM	2800 nM
CC(C)COC(=O)c1ccc2c(c1)/C(=C/Nc1ccc(S(N)(=O)=O)cc1)C(=O)N2 [GW416981X]	3 nM	19 nM
NS(=O)(=O)c1ccc(NC=C2C(=O)Nc3ccc4ncsc4c32)cc1 [GW589933X]	2.8 nM	29 nM
